Reference: ChEMBL document CHEMBL1129532, “Geranylgeranyl diphosphate-based inhibitors of post-translational geranylgeranylation of cellular proteins” (J Med Chem, 1996)

What was measured:
[1] = target: T1, Geranylgeranyl transferase type I (Homo sapiens, UniProt P49354+P53609); test: Inhibition of geranylgeranylation of P21rap in human PC-3 prostate cancer cells; assay type: functional, cell-based
[2] = target: PC-3 cells (Homo sapiens); test: Inhibition of human PC-3 prostate cancer cell line proliferation
[3] = target: T1, Geranylgeranyl transferase type I; test: Inhibition of geranylgeranylation of P21rap in human PC-3 prostate cancer cells; values are per cent of control

residual activity [3] | Structure (SMILES) | IC50 [1] | IC50 [2]
10.8% | CC(C)=CCC/C(C)=C/CC/C(C)=C/CC/C(C)=C/COC(=O)NS(N)(=O)=O | 28.2 µM | 22.2 µM
– | CCOP(=O)(O)CC(=O)NOC/C=C(\C)CC/C=C(\C)CC/C=C(\C)CCC=C(C)C | 40.2 µM | 35.1 µM
